Like-named read-outs stand apart in the source and are kept apart here.
Biological target: T1, full-length beta-Catenin (Uniprot ID P35222) (Homo sapiens, UniProt P35222)
T1 construct: 10 nM full-length beta-Catenin (Uniprot ID P35222)
T1 sequence (P35222 1-781): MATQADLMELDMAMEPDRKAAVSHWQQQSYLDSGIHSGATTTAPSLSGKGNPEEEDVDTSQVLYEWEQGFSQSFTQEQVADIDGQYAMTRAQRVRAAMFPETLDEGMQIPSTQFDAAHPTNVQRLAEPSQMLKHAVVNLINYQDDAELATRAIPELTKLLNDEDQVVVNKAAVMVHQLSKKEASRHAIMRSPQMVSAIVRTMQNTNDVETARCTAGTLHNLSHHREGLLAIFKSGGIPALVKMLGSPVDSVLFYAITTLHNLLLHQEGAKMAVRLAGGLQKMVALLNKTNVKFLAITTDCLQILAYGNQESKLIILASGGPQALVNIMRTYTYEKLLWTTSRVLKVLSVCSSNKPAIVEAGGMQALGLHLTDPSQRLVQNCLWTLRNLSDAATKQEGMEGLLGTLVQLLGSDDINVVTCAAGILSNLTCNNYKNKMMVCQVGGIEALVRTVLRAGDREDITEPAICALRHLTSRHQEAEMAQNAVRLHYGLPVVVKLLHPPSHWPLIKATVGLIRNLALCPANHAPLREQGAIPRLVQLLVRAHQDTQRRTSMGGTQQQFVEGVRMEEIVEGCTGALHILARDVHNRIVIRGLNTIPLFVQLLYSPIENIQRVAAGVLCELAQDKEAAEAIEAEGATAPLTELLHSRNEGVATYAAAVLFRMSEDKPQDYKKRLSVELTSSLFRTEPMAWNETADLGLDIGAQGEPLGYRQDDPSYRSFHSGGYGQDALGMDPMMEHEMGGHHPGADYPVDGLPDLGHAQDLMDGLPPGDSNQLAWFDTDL
Assay: Fluorescence polarization IC50 (beta-catenin / 5FAM-TCF4 10-53 competition)
Assay type: binding

[1] = fluorescence polarization; read-out: beta-Catenin FP IC50
[2] = read-out: beta-Catenin FP IC50; fluorescence polarization

IC50 [1] [nM]	SMILES	other results
918	CC(=O)N1CCC[C@]12CC=CCCCC1(CCCC=CCCCOC(=O)N3CC[C@@](C(=O)N[C@@H](Cc4ccsc4)C(=O)N[C@@H](Cc4csc5ccccc45)C(=O)N[C@@H](CCC(N)=O)C(N)=O)(C3)NC(=O)[C@H](CC(C)C)NC(=O)[C@H](Cc3ccccc3)NC(=O)[C@H](C)NC(=O)[C@H](C)NC(=O)[C@H](CC(=O)O)NC(=O)[C@H](CC(=O)S)NC1=O)NC(=O)[C@H](CC(C)(C)C)NC(=O)[C@H](CC(=O)O)NC2=O (stereo partly drawn) [I-1945, Ac-PL3-Asp-Npg-B5-AspSH-Asp-Ala-Ala-Phe-Leu-PyrS2-3Thi-BztA-Gln-NH2]	
874	CC(=O)N1CCC[C@]12CC=CCCCC1(CCCC=CCCCOC(=O)N3CC[C@@](C(=O)N[C@@H](Cc4ccsc4)C(=O)N[C@@H](Cc4csc5ccccc45)C(=O)N[C@@H](CCC(N)=O)C(N)=O)(C3)NC(=O)[C@H](CC(C)C)NC(=O)[C@H](Cc3ccccc3)NC(=O)[C@H](C)NC(=O)[C@H](C)NC(=O)[C@H](CC(=O)S)NC(=O)[C@H](CC(=O)O)NC1=O)NC(=O)[C@H](CC(C)(C)C)NC(=O)[C@H](CC(=O)O)NC2=O (stereo partly drawn) [I-1946, Ac-PL3-Asp-Npg-B5-Asp-AspSH-Ala-Ala-Phe-Leu-PyrS2-3Thi-BztA-Gln-NH2]	
253	CC(=O)N1CCC[C@]12CC=CCCCC1(CCCC=CCCCOC(=O)N3CC[C@@](C(=O)N[C@@H](Cc4ccsc4)C(=O)N[C@@H](Cc4csc5ccccc45)C(=O)N[C@@H](CCC(N)=O)C(N)=O)(C3)NC(=O)[C@H](CC(C)C)NC(=O)[C@H](Cc3ccccc3)NC(=O)[C@H](C)NC(=O)[C@H](C)NC(=O)[C@H](CC(=O)S)NC(=O)[C@H](CC(=O)O)NC1=O)NC(=O)[C@H](CC(C)(C)C)NC(=O)[C@H](CC(=O)O)NC2=O (stereo partly drawn) [I-1947, Ac-PL3-Asp-Npg-B5-Asp-AspSH-Ala-Ala-Phe-Leu-PyrS2-3Thi-BztA-Gln-NH2]	
1330	CC(=O)N1CCC[C@]12CC=CCCCC1(CCCC=CCCCOC(=O)N3CC[C@@](C(=O)N[C@@H](Cc4ccsc4)C(=O)N[C@@H](Cc4csc5ccccc45)C(=O)N[C@@H](CCC(N)=O)C(N)=O)(C3)NC(=O)[C@H](CC(C)C)NC(=O)[C@H](Cc3ccccc3)NC(=O)[C@H](C)NC(=O)[C@H](C)NC(=O)[C@H](CCC(=O)S)NC(=O)[C@H](CC(=O)O)NC1=O)NC(=O)[C@H](CC(C)(C)C)NC(=O)[C@H](CC(=O)O)NC2=O (stereo partly drawn) [I-1948, Ac-PL3-Asp-Npg-B5-Asp-GluSH-Ala-Ala-Phe-Leu-PyrS2-3Thi-BztA-Gln-NH2]	
	CC(=O)N1CCC[C@]12CC=CCCCC1(CCCC=CCCCOC(=O)N3CC[C@@](C(=O)N[C@@H](Cc4ccsc4)C(=O)N[C@@H](Cc4csc5ccccc45)C(=O)N[C@@H](CCC(N)=O)C(N)=O)(C3)NC(=O)[C@H](CC(C)C)NC(=O)[C@H](Cc3ccccc3)NC(=O)[C@H](C)NC(=O)[C@H](C)NC(=O)[C@H](CC(=O)O)NC(=O)[C@H](CC(=O)OCCSSc3ccccc3)NC1=O)NC(=O)[C@H](CC(C)(C)C)NC(=O)[C@H](CC(=O)O)NC2=O (stereo partly drawn) [I-1955, Ac-PL3-Asp-Npg-B5-[EtSSPh]AspE-Asp-Ala-Ala-Phe-Leu-PyrS2-3Thi-BztA-Gln-NH2]	IC50 [2]: 1200 nM
	CC(=O)N1CCC[C@]12CC=CCCCC1(CCCC=CCCCOC(=O)N3CC[C@@](C(=O)N[C@@H](Cc4ccsc4)C(=O)N[C@@H](Cc4csc5ccccc45)C(=O)N[C@@H](CCC(N)=O)C(N)=O)(C3)NC(=O)[C@H](CC(C)C)NC(=O)[C@H](Cc3ccccc3)NC(=O)[C@H](C)NC(=O)[C@H](C)NC(=O)[C@H](CC(=O)OCCSSc3ccccc3)NC(=O)[C@H](CC(=O)O)NC1=O)NC(=O)[C@H](CC(C)(C)C)NC(=O)[C@H](CC(=O)O)NC2=O (stereo partly drawn) [I-1956, Ac-PL3-Asp-Npg-B5-Asp-[EtSSPh]AspE-Ala-Ala-Phe-Leu-PyrS2-3Thi-BztA-Gln-NH2]	IC50 (beta-Catenin FP IC50 (nM), fluorescence polarization): 849 nM
	CC(=O)N1CCC[C@]12CC=CCCCC1(CCCC=CCCCOC(=O)N3CC[C@@](C(=O)N[C@@H](Cc4ccsc4)C(=O)N[C@@H](Cc4csc5ccccc45)C(=O)N[C@@H](CCC(N)=O)C(N)=O)(C3)NC(=O)[C@H](CC(C)C)NC(=O)[C@H](Cc3ccccc3)NC(=O)[C@H](C)NC(=O)[C@H](C)NC(=O)[C@H](CCC(=O)OCCSSc3ccccc3)NC(=O)[C@H](CC(=O)O)NC1=O)NC(=O)[C@H](CC(C)(C)C)NC(=O)[C@H](CC(=O)O)NC2=O (stereo partly drawn) [I-1957, Ac-PL3-Asp-Npg-B5-Asp-[EtSSPh]GluE-Ala-Ala-Phe-Leu-PyrS2-3Thi-BztA-Gln-NH2]	IC50 [2]: 567 nM
544	CCCCCCSSCCOC(=O)C[C@@H]1NC(=O)[C@]2(CC=CCCCC3(CCCC=CCCCOC(=O)N4CC[C@@](C(=O)N[C@@H](Cc5ccsc5)C(=O)N[C@@H](Cc5csc6ccccc56)C(=O)N[C@@H](CCC(N)=O)C(N)=O)(C4)NC(=O)[C@H](CC(C)C)NC(=O)[C@H](Cc4ccccc4)NC(=O)[C@H](C)NC(=O)[C@H](C)NC(=O)[C@H](CC(=O)O)NC(=O)[C@H](CC(=O)O)NC3=O)NC(=O)[C@H](CC(C)(C)C)NC1=O)CCCN2C(C)=O (stereo partly drawn) [I-1960, Ac-PL3-[EtSSHex]AspE-Npg-B5-Asp-Asp-Ala-Ala-Phe-Leu-PyrS2-3Thi-BztA-Gln-NH2]	
738	CCSSCCOC(=O)C[C@@H]1NC(=O)C2(CCCC=CCCCOC(=O)N3CC[C@@](C(=O)N[C@@H](Cc4ccsc4)C(=O)N[C@@H](Cc4csc5ccccc45)C(=O)N[C@@H](CCC(N)=O)C(N)=O)(C3)NC(=O)[C@H](CC(C)C)NC(=O)[C@H](Cc3ccccc3)NC(=O)[C@H](C)NC(=O)[C@H](C)NC(=O)[C@H](CC(=O)O)NC1=O)CCCC=CC[C@]1(CCCN1C(C)=O)C(=O)N[C@@H](CC(=O)O)C(=O)N[C@@H](CC(C)(C)C)C(=O)N2 (stereo partly drawn) [I-1964, Ac-PL3-Asp-Npg-B5-[EtSSEt]AspE-Asp-Ala-Ala-Phe-Leu-PyrS2-3Thi-BztA-Gln-NH2]	
566	CCSSCCOC(=O)CC[C@@H]1NC(=O)[C@H](CC(=O)O)NC(=O)C2(CCCC=CCCCOC(=O)N3CC[C@@](C(=O)N[C@@H](Cc4ccsc4)C(=O)N[C@@H](Cc4csc5ccccc45)C(=O)N[C@@H](CCC(N)=O)C(N)=O)(C3)NC(=O)[C@H](CC(C)C)NC(=O)[C@H](Cc3ccccc3)NC(=O)[C@H](C)NC(=O)[C@H](C)NC1=O)CCCC=CC[C@]1(CCCN1C(C)=O)C(=O)N[C@@H](CC(=O)O)C(=O)N[C@@H](CC(C)(C)C)C(=O)N2 (stereo partly drawn) [I-1966, Ac-PL3-Asp-Npg-B5-Asp-[EtSSEt]GluE-Ala-Ala-Phe-Leu-PyrS2-3Thi-BztA-Gln-NH2]	
14	CC(=O)N1CCC[C@]12CC=CCCCC1(CCCC=CCCCOC(=O)N3CC[C@@](C(=O)N[C@@H](Cc4ccsc4)C(=O)N[C@@H](Cc4csc5ccccc45)C(=O)N[C@@H](CCC(N)=O)C(N)=O)(C3)NC(=O)[C@H](CC(C)C)NC(=O)[C@H](Cc3ccccc3)NC(=O)[C@H](C)NC(=O)[C@H](C)NC(=O)[C@H](CN3CCC[C@@H](C(=O)O)C3)NC(=O)[C@H](CC(=O)O)NC1=O)NC(=O)[C@H](CC(C)(C)C)NC(=O)[C@H](CC(=O)O)NC2=O (stereo partly drawn) [I-1967, Ac-PL3-Asp-Npg-B5-Asp-R3COOPipA-Ala-Ala-Phe-Leu-PyrS2-3Thi-BztA-Gln-NH2]	
29	CC(=O)N1CCC[C@]12CC=CCCCC1(CCCC=CCCCOC(=O)N3CC[C@@](C(=O)N[C@@H](Cc4ccsc4)C(=O)N[C@@H](Cc4csc5ccccc45)C(=O)N[C@@H](CCC(N)=O)C(N)=O)(C3)NC(=O)[C@H](CC(C)C)NC(=O)[C@H](Cc3ccccc3)NC(=O)[C@H](C)NC(=O)[C@H](C)NC(=O)[C@H](CN3CCCC[C@H]3C(=O)O)NC(=O)[C@H](CC(=O)O)NC1=O)NC(=O)[C@H](CC(C)(C)C)NC(=O)[C@H](CC(=O)O)NC2=O (stereo partly drawn) [I-1968, Ac-PL3-Asp-Npg-B5-Asp-S2COOPipA-Ala-Ala-Phe-Leu-PyrS2-3Thi-BztA-Gln-NH2]	
49	CC(=O)N1CCC[C@]12CC=CCCCC1(CCCC=CCCCOC(=O)N3CC[C@@](C(=O)N[C@@H](Cc4ccsc4)C(=O)N[C@@H](Cc4csc5ccccc45)C(=O)N[C@@H](CCC(N)=O)C(N)=O)(C3)NC(=O)[C@H](CC(C)C)NC(=O)[C@H](Cc3ccccc3)NC(=O)[C@H](C)NC(=O)[C@H](C)NC(=O)[C@H](CN3CCCC[C@@H]3C(=O)O)NC(=O)[C@H](CC(=O)O)NC1=O)NC(=O)[C@H](CC(C)(C)C)NC(=O)[C@H](CC(=O)O)NC2=O (stereo partly drawn) [I-1969, Ac-PL3-Asp-Npg-B5-Asp-R2COOPipA-Ala-Ala-Phe-Leu-PyrS2-3Thi-BztA-Gln-NH2]	

SMILES	IC50 [1] [nM]	other results
CC(=O)N1CCC[C@]12CC=CCCCC1(CCCC=CCCCOC(=O)N3CC[C@@](C(=O)N[C@@H](Cc4ccsc4)C(=O)N[C@@H](Cc4csc5ccccc45)C(=O)N[C@@H](CCC(N)=O)C(N)=O)(C3)NC(=O)[C@H](CC(C)C)NC(=O)[C@H](Cc3ccccc3)NC(=O)[C@H](C)NC(=O)[C@H](C)NC(=O)[C@H](CC(=O)O)NC(=O)[C@H](CC(=O)OCCSSc3ccccn3)NC1=O)NC(=O)[C@H](CC(C)(C)C)NC(=O)[C@H](CC(=O)O)NC2=O (stereo partly drawn) [I-1950, Ac-PL3-Asp-Npg-B5-[EtSSpy]AspE-Asp-Ala-Ala-Phe-Leu-PyrS2-3Thi-BztA-Gln-NH2]	234	

From US20240116985A1, “STAPLED PEPTIDES AND METHODS THEREOF” (priority 2020, published 2024)
